Results published in PubChem BioAssay (NCI).
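Method: 48-hour compound exposure of cells in 96-well plates, five concentrations, linear interpolation of endpoints. GI50: concentration for 50% inhibition of growth. TGI is the concentration that stops growth completely.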

Legend:
Assay in all cases: DTP human tumour cell line panel, 48 h
[1] = system: OVCAR-4 ovarian
[2] = system: UACC-257 melanoma
[3] = system: U251 CNS
[4] = system: SN12C renal
[5] = system: OVCAR-3 ovarian
[6] = system: HT29 colon
[7] = system: CCRF-CEM leukemia
[8] = system: HCC-2998 colon
[9] = system: SK-MEL-28 melanoma
[10] = system: MDA-MB-231 breast

SMILES | TGI [1] | TGI [2] | TGI [3] | TGI [4] | TGI [5] | TGI [6] | TGI [7] | TGI [8] | TGI [9] | TGI [10] | GI50 [1] | GI50 [2] | GI50 [3] | GI50 [9] | GI50 [4] | GI50 [5] | GI50 [6] | GI50 [7] | GI50 [8]
O=C1c2cccc3cc([N+](=O)[O-])cc(c23)C(=O)N1CCCN1CCN(CCCN2C(=O)c3cccc4cc([N+](=O)[O-])cc(c34)C2=O)CC1 | 5.96 µM | 8.97 µM | 19.3 µM | > 100 µM | 4.81 µM | > 100 µM | > 100 µM | 54.3 µM |  |  |  |  |  |  |  |  |  |  | 
COc1ccc(/C=[N+](\[O-])[C@H](COCc2ccccc2)c2ccccc2)cc1 |  | > 100 µM | > 100 µM |  | > 100 µM | > 100 µM | > 100 µM | > 100 µM | > 100 µM |  |  |  |  |  |  |  |  |  | 
Cc1ccc(C)c(NC(=O)/C(=N\NC(N)=S)C(C#N)c2ccccc2)c1 (centres undefined) | > 100 µM | > 100 µM | > 100 µM | > 100 µM | > 100 µM | > 100 µM | > 100 µM | > 100 µM | > 100 µM |  |  |  |  |  |  |  |  |  | 
O=C(O)c1nnsc1COCc1ccccc1 | > 100 µM | > 100 µM | > 100 µM | > 100 µM | > 100 µM | > 100 µM | > 100 µM |  | > 100 µM | > 100 µM |  |  |  |  |  |  |  |  | 
CC(SC1=CC(=O)c2c(O)ccc(O)c2C1=O)C(=O)O (centres undefined) | 35 µM | > 66 µM | > 60.1 µM | > 77.7 µM | 53.1 µM | > 100 µM | 14.8 µM | > 100 µM | > 80.1 µM |  |  |  |  |  |  |  |  |  | 
CC(=O)O/C(C)=C\C(=O)O/N=C(\N)c1ccc(C)cc1 | 64.5 µM | > 100 µM | 40.5 µM | 57.4 µM | > 100 µM | > 100 µM | 41.5 µM | > 100 µM | 42.7 µM |  |  |  |  |  |  |  |  |  | 
COc1cccc2c1C1=CC(=O)CCC1C(C)(C)O2 (centres undefined) | > 100 µM | > 100 µM | > 100 µM | > 100 µM | > 100 µM | > 100 µM | > 100 µM |  | > 100 µM |  |  |  |  |  |  |  |  |  | 
CCCN(CCC)c1c([N+](=O)[O-])cc(S(N)(=O)=O)cc1[N+](=O)[O-] | 26.9 µM | 37.2 µM | 26.9 µM | 31.6 µM | 31.8 µM | 34 µM | 46.5 µM | 33.2 µM | 36.3 µM |  |  |  |  |  |  |  |  |  | 
CC(C)(C)C([O-])=C1C(=O)c2ccccc2C1=O.CC(C)(C)C([O-])=C1C(=O)c2ccccc2C1=O.CC[O-].CC[O-].[Ti+4] | > 100 µM | 96.9 µM | > 100 µM | > 100 µM | 91.4 µM | > 100 µM | > 100 µM | > 100 µM | > 100 µM |  | 58.7 µM | 30.4 µM | 41.6 µM | > 100 µM | 37.7 µM | 27.9 µM | 32.9 µM | 38.8 µM | 40.3 µM
Nc1ncnc2c1ncn2C1OC(C(=O)O)C(O)C1O (centres undefined) | > 100 µM | > 100 µM | > 100 µM | > 100 µM | > 100 µM | > 100 µM | > 100 µM |  | > 100 µM | > 100 µM |  |  |  |  |  |  |  |  | 
Cn1cc(NC(=O)c2cc(NC(=O)CCCCCC(=O)Nc3cc(C(=O)Nc4cc(C(=O)NCCC(=N)N)n(C)c4)n(C)c3)cn2C)cc1C(=O)NCCC(=N)N | > 100 µM | > 100 µM | > 100 µM | > 100 µM | > 100 µM | > 100 µM | > 100 µM | > 100 µM | > 100 µM |  |  |  |  |  |  |  |  |  | 
